In US20220169639A1 (priority 2018, published 2022) one finds IC50 data, which are given here for 16 molecules.

The test system of the assay is HBeAg (surrogate marker for cccDNA) in HepDES19 cells. Put plainly: Engineered HepDES19 primary screen assay (HBeAg ELISA). In kind it is cell-based, HBV. The following applies: Hepatitis B virus, 120 h, HBeAg in culture supernatant, 5 days incubation, read-out: IC50 (HepDES19 primary screen assay, inhibition of extracellular HBeAg level). The source says: The assay was employed to screen for cccDNA inhibitors. HepDES19 is a cccDNA-producing cell line. In this cell line, HBeAg in the cell culture supernatant as surrogate marker, as HBeAg production depends on cccDNA level and activity. HepDES19 is an engineered cell line which contains a 1.1 unit length HBV genome, and pgRNA transcription from the transgene is controlled by Tetracycline (Tet). In the absence of Tet, pgRNA transcription will be induced, but HBV e antigen (HBeAg) could not be produced from this pgRNA due to very short leader sequence before the HBeAg start codon and the start codon is disrupted. Only after cccDNA is formed, the missing leader sequence and start codon mutation would be restored from the 3′-terminal redundancy of pgRNA, and then HBeAg could be synthesized. Therefore, HBeAg could be used as a surrogate marker for cccDNA (Zhou, T. et al., Antiviral Res. (2006), 72(2), 116-124; Guo, H. et al., J. Virol. (2007), 81(22), 12472-12484).
HepDES19 cells were seeded at 2×10^6 cells per T150 flask and cultured with the culture medium (Dulbecco's Modified Eagle Medium: Nutrient Mixture F-12 [DMEM-F12, Gibco Cat. 11320-82], 10% Fetal Bovine Serum [FBS, Clontech Cat. 631101], 0.1 mM Non-Essential Amino Acids Solution [NEAA, Gibco Cat. 11140-050], 50 μg/mL Penicillin-Streptomycin [PS, Invitrogen Cat. 15140-163], 500 μg/mL Geneticin [G418, Invitrogen Cat. 10131-027]) containing 3 μg/mL Tet (Sigma, Cat. 87128) for 5 days. Cells were then seeded at 4×10^6 cells per T150 in the same culture medium as described above in the absence of Tet for 8 days. Cells were then harvested and frozen at density of 2×10^6 cells per mL. For compound testing, the frozen cells were thawed and seeded into 96-well plates at a density of 6×10^4 cells per well. At 24 hours after seeding, half log serial dilutions of compounds made with Dimethyl sulfoxide (DMSO, Sigma, Cat. D2650) were further diluted with the same culture medium as described above before they were added to the cells to reach desired final compound concentrations and 1% DMSO concentration. Plates were then incubated at 37° C. for another 5 days before measurement of HBeAg level and cell viability. Intracellular HBeAg level were measured with enzyme-linked immunosorbent assay (ELISA) kit (Shanghai Kehua Diagnostic Medical Products Co., Ltd). Cell viability was assessed using Cell Counting Kit-8 (DonJindo, Cat. CK04-20). IC50 values were derived from the dose-response curve using 4 parameter logistic curve fit method.
The compounds of the present invention were tested for their capacity to inhibit extracellular HBeAg level as described herein.
As to `O=C(O)C1CCN(CCOc2ccccc2-c2cc(=O)c3cccc(Cl)c3o2)C1` (stereo not shown) [Example 031, 1-[2-[2-(8-chloro-4-oxo-chromen-2-yl)phenoxy]ethyl]pyrrolidine-3-carboxylic acid], the IC50 (commonly the concentration needed to halve the response being measured) was found to be 170 nM.

As for `CC(=O)N(CCCOc1cc(C(F)(F)F)ccc1-c1cc(=O)c2cccc(Cl)c2o1)CC(=O)O` [Example 144], the 50% inhibitory concentration (IC50) came out at 11400 nM.

In the case of `O=C(O)C1CC(N(CCCOc2cc(C(F)(F)F)ccc2-c2cc(=O)c3cccc(Cl)c3o2)S(=O)(=O)C2CC2)C1` (stereo not shown) [Example 139, 3-[3-[2-(8-chloro-4-oxo-chromen-2-yl)-5-(trifluoromethyl)phenoxy]propyl-cyclopropylsulfonyl-amino]cyclobutanecarboxylic acid], the half-inhibitory concentration (IC50) came to 10200 nM.

Take `O=c1cc(-c2ccc(C(F)(F)F)cc2OCCCNC2CCS(=O)(=O)CC2)oc2c(Cl)cccc12` [Example 078, 8-chloro-2-[2-[3-[(1,1-dioxothian-4-yl)amino]propoxy]-4-(trifluoromethyl)phenyl]chromen-4-one]: the IC50 is 7800 nM.

For the molecule `Cc1cc(F)c(-c2cc(=O)c3cccc(Cl)c3o2)c(OCCNC(=O)C(=O)O)c1` [Example 112], the 50% inhibitory concentration (IC50) turned out to be 490 nM.

With `Cc1ccc(S(=O)(=O)NC(=O)NCCCOc2cc(C)ccc2-c2cc(=O)c3cccc(Cl)c3o2)cc1` [Example 156, 1-[3-[2-(8-chloro-4-oxo-chromen-2-yl)-5-methyl-phenoxy]propyl]-3-(p-tolylsulfonyl)urea], the IC50 worked out at 4140 nM.

On to `O=c1cc(-c2ccc(Br)cc2OCCN[C@H]2CC[C@H](C(=O)O)CC2)oc2c(Cl)cccc12` [Example 056, trans-4-[2-[5-bromo-2-(8-chloro-4-oxo-chromen-2-yl)phenoxy]ethylamino]cyclohexanecarboxylic acid], for which the IC50 was 1000 nM.

In the case of `Cc1ccc(-c2cc(=O)c3cccc(Cl)c3o2)c(OCCN2C(=O)N[C@@H](C(C)C)C2=O)c1` [Example 152], the half-maximal inhibitory concentration (IC50) was determined as 480 nM.

In the case of `CC(C)[C@@H](NCCCOc1cc(C(F)(F)F)ccc1-c1cc(=O)c2cccc(Cl)c2o1)C(=O)O` [Example 009, (2R)-2-[3-[2-(8-chloro-4-oxo-chromen-2-yl)-5-(trifluoromethyl)phenoxy]propylamino]-3-methyl-butanoic acid], the IC50 stood at 7470 nM.

In the case of `O=C(O)C(=O)N1CC(Oc2cc(C(F)(F)F)ccc2-c2cc(=O)c3cccc(Cl)c3o2)C1` [Example 127], the half-inhibitory concentration (IC50) turned out to be 80 nM.

Consider `C[C@@H]1CN(CCOc2cc(Br)ccc2-c2cc(=O)c3cccc(Cl)c3o2)C[C@H]1C(=O)O` [Example 024, (3S,4S)-1-[2-[5-bromo-2-(8-chloro-4-oxo-chromen-2-yl)phenoxy]ethyl]-4-methyl-pyrrolidine-3-carboxylic acid], for which the IC50 was determined as 1040 nM.

As to `CC(C)(COc1cc(C(F)(F)F)ccc1-c1cc(=O)c2cccc(Cl)c2o1)NC(=O)C(=O)O` [Example 115], the 50% inhibitory concentration (IC50) amounted to 1040 nM.

For `CS(=O)(=O)NC(=O)[C@@H]1CCN(CCOc2cc(C(F)(F)F)ccc2-c2cc(=O)c3cccc(Cl)c3o2)C1` [Example 070, (3R)-1-[2-[2-(8-chloro-4-oxo-chromen-2-yl)-5-(trifluoromethyl)phenoxy]ethyl]-N-methylsulfonyl-pyrrolidine-3-carboxamide], the IC50 is 1010 nM.

Regarding `O=c1cc(-c2ccc(Br)cc2OCCOCCN2CCOCC2)oc2c(Cl)cccc12` [Example 090, 2-[4-bromo-2-[2-(2-morpholinoethoxy)ethoxy]phenyl]-8-chloro-chromen-4-one], the IC50 stood at 1300 nM.

Regarding `O=C(NS(=O)(=O)C1CC1)[C@@H]1CCN(CCCOc2cc(C(F)(F)F)ccc2-c2cc(=O)c3cccc(Cl)c3o2)C1` [Example 067, (3R)-1-[3-[2-(8-chloro-4-oxo-chromen-2-yl)-5-(trifluoromethyl)phenoxy]propyl]-N-cyclopropylsulfonyl-pyrrolidine-3-carboxamide], the IC50 was found to be 8400 nM.

As to `O=C(O)C(=O)N1CCC(Oc2cc(C(F)(F)F)ccc2-c2cc(=O)c3cccc(Cl)c3o2)CC1` [Example 129], the IC50 came to 4750 nM.
